The results in this text go back to ChEMBL document CHEMBL1122090, “Species- or isozyme-specific enzyme inhibitors. 7. Selective effects in inhibitions of rat adenylate kinase isozymes by adenosine 5'-phosphate derivatives” (J Med Chem, 1982).

Assay [1] has as its target T1, Adenylate kinase isoenzyme 1 (Rattus norvegicus) (UniProt P39069).
T1 sequence (whole entry): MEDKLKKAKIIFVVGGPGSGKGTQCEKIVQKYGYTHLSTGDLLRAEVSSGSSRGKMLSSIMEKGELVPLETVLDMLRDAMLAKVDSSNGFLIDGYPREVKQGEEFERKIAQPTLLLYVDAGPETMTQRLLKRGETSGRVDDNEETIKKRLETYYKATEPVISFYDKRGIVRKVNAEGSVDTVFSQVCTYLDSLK
The assay can be described thus: Relative Vmax value to Adenylate kinase M isoenzyme (adenylate kinase 1, AK1).

For assay [2], the target named is Adenylate kinase 2, mitochondrial (Rattus norvegicus) (UniProt P29410). The assay can be described thus: Relative Vmax value to rat adenylate kinase II.
The target of assay [3] is GTP:AMP phosphotransferase AK3, mitochondrial (Rattus norvegicus) (UniProt P29411). The assay can be described thus: Inhibition index was the ratio between KM of AMP and Ki of AK III. Format: functional.
For assay [4], the target named is Adenylate kinase 2, mitochondrial (Rattus norvegicus) (UniProt P29410). The assay can be described thus: Inhibition index was the ratio between KM of AMP and Ki of AK II. Format: functional.
The target in assay [5] is T1, Adenylate kinase isoenzyme 1 (Rattus norvegicus). The assay can be described thus: Inhibition index was the ratio between KM of AMP and Ki of AK M. It is filed as functional.
In assay [6] the target is GTP:AMP phosphotransferase AK3, mitochondrial (Rattus norvegicus) (UniProt P29411). The assay can be described thus: Relative Vmax value to rat adenylate kinase III.
A short description of assay [7]: Relative inhibition index was the ratio between AK-M and AK III. It is filed as functional.
Assay [8] can be described thus: Relative inhibition index was the ratio between AK-M and AK II. Format: functional.
In assay [9] the target is Adenylate kinase 2, mitochondrial (Rattus norvegicus) (UniProt P29410). The assay can be described thus: Relative Vmax value to Adenylate kinase II.

GTP:AMP phosphotransferase AK3, mitochondrial (Rattus norvegicus), sequence (P29411 whole entry): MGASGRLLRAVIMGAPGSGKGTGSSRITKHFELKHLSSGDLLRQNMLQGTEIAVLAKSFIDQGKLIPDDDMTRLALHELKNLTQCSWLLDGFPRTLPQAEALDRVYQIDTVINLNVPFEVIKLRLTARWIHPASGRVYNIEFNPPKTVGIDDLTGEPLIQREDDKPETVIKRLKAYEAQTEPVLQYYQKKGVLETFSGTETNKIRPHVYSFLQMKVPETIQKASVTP

`CC1(C)O[C@@H]2[C@H](O1)[C@@H](COP(=O)(O)O)O[C@H]2n1cnc2c(N)ncnc21`: the Relative Vmax in [1], in [2] and in assay [6] was 0 in each case. The Inhibition index worked out at 0.044 in assay [3], 0.038 in assay [4] and 0.25 in assay [5]. The Relative inhibition index is 5.7 in assay [7] and 6.6 in assay [8].

As to `CSc1nc(N)c2ncn([C@@H]3O[C@H](COP(=O)(O)O)[C@@H](O)[C@H]3O)c2n1`, the Relative Vmax in assay [1], in [2] and in assay [6] was greater than 0 in each case.

In the case of `CC1O[C@@H]2[C@H](O1)[C@@H](COP(=O)(O)O)O[C@H]2n1cnc2c(N)ncnc21` (stereo not given in full), the Relative Vmax in assay [1], in assay [2] and in assay [6] was 0 in each case. Also, the Inhibition index stood at 0.028 in [3], 0.03 in [4] and 0.13 in assay [5]. The Relative inhibition index in assay [7] was found to be 4.6; in assay [8] it was 4.3.

On to `CNc1nc(N)c2ncn([C@@H]3O[C@H](COP(=O)(O)O)[C@@H](O)[C@H]3O)c2n1`, for which the Relative Vmax in [1] turned out to be 0.7; in assay [2], 9.7; in assay [6], 10. The Inhibition index came to 0.022 in assay [3], 0.027 in assay [4] and 0.2 in assay [5]. The Relative inhibition index was 9.1 in assay [7] and 7.4 in [8].

Turning to `CC[C@H](OP(=O)(O)O)[C@H]1OC(n2cnc3c(N)ncnc32)[C@H](O)[C@@H]1O` (stereo not given in full), the Relative Vmax in [1] is greater than 0; in assay [9], 2.4; in [6], greater than 0. For the same compound, the Inhibition index in assay [4] came out at 0.057; in [5] it was 0.64. Also, in assay [8], the Relative inhibition index is 11.2.

For the compound `Nc1nc(Cl)nc2c1ncn2[C@@H]1O[C@H](COP(=O)(O)O)[C@@H](O)[C@H]1O`, the Relative Vmax in assay [1] worked out at 0.13; in assay [2], 5.8; in [6], 7.5. The Inhibition index in assay [3] was 0.05; in assay [4], 0.05; in [5] it was 0.21. Also, the Relative inhibition index in assay [7] and in assay [8] was 4.2 throughout.

For `CCC[C@@H](OP(=O)(O)O)[C@H]1OC(n2cnc3c(N)ncnc32)[C@H](O)[C@@H]1O` (stereo not given in full), the Relative Vmax in [1], in assay [2] and in [6] was 0 in each case. Moreover, the Inhibition index in [3] amounted to 0.021; in assay [4], 0.025.

Turning to `COP(=O)(O)C[C@H]1OC(n2cnc3c(N)ncnc32)[C@H](O)[C@@H]1O` (stereo not given in full), the Relative Vmax in assay [1], in assay [2] and in assay [6] was 0 throughout.

Consider `CCSc1nc2c(N)ncnc2n1C1O[C@H](COP(=O)(O)O)[C@@H](O)[C@H]1O` (stereo not given in full), for which the Relative Vmax in assay [1], in [2] and in assay [6] was 0 each time.

Turning to `CC[C@@H](OP(=O)(O)O)[C@H]1OC(n2cnc3c(N)ncnc32)[C@H](O)[C@@H]1O` (stereo not given in full), the Relative Vmax in assay [1], in assay [2] and in [6] was 0 throughout. Besides, the Inhibition index in assay [3] and in assay [4] was 0.015 in each case.

`Nc1nc(N)c2ncn([C@@H]3O[C@H](COP(=O)(O)O)[C@@H](O)[C@H]3O)c2n1`: the Relative Vmax in assay [1] was determined as 7.1; in [2] it was 18; in [6] it was 24. The Inhibition index came to 0.042 in [3], 0.05 in assay [4] and 0.17 in assay [5]. In addition, the Relative inhibition index turned out to be 4 in assay [7] and 3.4 in assay [8].

With `Nc1ncnc2c1ncn2[C@@H]1O[C@H](COS(=O)(=O)O)[C@@H](O)[C@H]1O`, the Relative Vmax in assay [1], in assay [2] and in assay [6] was 0 throughout. For the same compound, the Inhibition index was determined as 0.11 in assay [3] and 0.12 in assay [5]. Also, the Relative inhibition index in assay [7] is 1.1.

On to `Nc1ncnc2c1ncn2[C@@H]1O[C@H](CCP(=O)(O)O)[C@@H](O)[C@H]1O`, for which the Relative Vmax was 2.2 in assay [1], 11.2 in assay [2] and 21 in [6]. Moreover, the Inhibition index came to 0.036 in assay [3], 0.032 in [4] and 0.14 in assay [5]. Besides, the Relative inhibition index came to 3.9 in [7] and 4.4 in assay [8].

As for `Nc1ncnc2c1nc(Br)n2[C@@H]1O[C@H](COP(=O)(O)O)[C@@H](O)[C@H]1O`, the Relative Vmax in assay [1], in assay [2] and in assay [6] was 0 in each case.

As for `CCC1O[C@@H]2[C@H](O1)[C@@H](COP(=O)(O)O)O[C@H]2n1cnc2c(N)ncnc21` (stereo not given in full), the Relative Vmax in [1], in assay [2] and in [6] was 0 each time. In addition, the Inhibition index in assay [3] was 0.032; in assay [4], 0.03; in assay [5] it was 0.089. The figures for the Relative inhibition index in assay [7] and in assay [8] were 2.8 and 3, respectively.

Take `Nc1ncnc2c1ncn2[C@@H]1O[C@H](COP(=O)(O)O)[C@@H](O)[C@H]1O`: the Relative Vmax in assay [1], in assay [2] and in assay [6] was 100 throughout.

For the compound `CN(C)c1nc(N)c2ncn(C3O[C@H](COP(=O)(O)O)[C@@H](O)[C@H]3O)c2n1` (stereo not given in full), the results for the Relative Vmax in [1], in assay [2] and in [6] were 0.04, 0 and 0, respectively. Moreover, the Inhibition index in [3] came out at 0.017; in assay [4] it was 0.014; in assay [5], 0.077. Moreover, the values for the Relative inhibition index in [7] and in assay [8] were 4.5 and 5.5, respectively.

As for `CO[C@@H]1[C@H](O)[C@@H](COP(=O)(O)O)O[C@H]1n1cnc2c(N)ncnc21`, the Relative Vmax in [1], in assay [2] and in assay [6] was greater than 0 in each case. Also, the Inhibition index in [3] is 0.017; in assay [4], 0.022; in assay [5], 0.14. For the same compound, the values for the Relative inhibition index in assay [7] and in [8] were 8.2 and 6.4, respectively.

For the compound `Cn1cnc2c(ncn2[C@@H]2O[C@H](COP(=O)(O)O)[C@@H](O)[C@H]2O)c1=N`, the Relative Vmax in assay [1], in assay [2] and in assay [6] was 0 each time.

For `CCNc1nc(N)c2ncn([C@@H]3O[C@H](COP(=O)(O)O)[C@@H](O)[C@H]3O)c2n1`, the Relative Vmax came to 0.4 in assay [1] and 2.7 in [6]. In addition, the results for the Inhibition index in [3] and in assay [5] were 0.015 and 0.14, respectively. In [7], the Relative inhibition index came out at 9.3.

As to `C=CC[C@]1(COP(=O)(O)O)OC(n2cnc3c(N)ncnc32)[C@H](O)[C@@H]1O` (stereo not given in full), the Relative Vmax in assay [1], in assay [2] and in assay [6] was greater than 0 throughout. Moreover, the values for the Inhibition index in assay [3], in [4] and in assay [5] were 0.12, 0.21 and 0.97, respectively. For the same compound, the values for the Relative inhibition index in assay [7] and in assay [8] were 8.1 and 4.6, respectively.

As to `C[C@@H](OP(=O)(O)O)[C@H]1OC(n2cnc3c(N)ncnc32)[C@H](O)[C@@H]1O` (stereo not given in full), the values for the Relative Vmax in assay [1], in assay [2] and in assay [6] were 0, greater than 0 and greater than 0, respectively. Moreover, the Inhibition index in assay [3] was 0.008; in [4] it was 0.0082.

Regarding `CC(=O)NCCNc1ncnc2c1ncn2C1O[C@H](COP(=O)(O)O)[C@@H](O)[C@H]1O` (stereo not given in full), the Relative Vmax in [1], in assay [2] and in assay [6] was 0 in each case.

`C[C@@H]1[C@H](O)[C@@H](COP(=O)(O)O)O[C@H]1n1cnc2c(N)ncnc21`: the Relative Vmax in assay [1] was 5.6; in [2] it was 29; in assay [6], 21. The Inhibition index came out at 0.1 in [3], 0.088 in assay [4] and 0.11 in [5]. Also, the Relative inhibition index is 1.1 in assay [7] and 1.2 in assay [8].

Take `CO[C@H]1[C@@H](O)[C@H](n2cnc3c(N)ncnc32)O[C@@H]1COP(=O)(O)O`: the Relative Vmax in assay [1], in [2] and in [6] was greater than 0 each time. Further, the Inhibition index in [3] was determined as 0.13; in assay [4], 0.085; in [5], 0.34. Further, the Relative inhibition index in assay [7] was determined as 2.6; in [8], 4.

Consider `C[C@H](OP(=O)(O)O)[C@H]1OC(n2cnc3c(N)ncnc32)[C@H](O)[C@@H]1O` (stereo not given in full), for which the results for the Relative Vmax in assay [1], in [2] and in assay [6] were 1, 7 and 8, respectively. Further, the Inhibition index in [3] turned out to be 0.1; in assay [4], 0.062; in [5], 0.28. Further, the Relative inhibition index in [7] worked out at 2.8; in assay [8], 4.7.

Turning to `Nc1ncnc2c1ncn2C(CO)OC(CO)COP(=O)(O)O` (stereo not given), the Relative Vmax in assay [1], in assay [2] and in [6] was 0 each time.
